According to ChEMBL document CHEMBL1122212, “Substance P” (1982):
Square brackets hold non-standard residues; d marks the D form. Peptide text beside a SMILES is read from it. pGlu = O=C1CC[C@@H](C(=O)O)N1

Key:
Rattus norvegicus [1] = organism: Rattus norvegicus; assay: Potency of compound was determined in rat vas deferens relative to substance E; assay type: functional
Rattus norvegicus [2] = organism: Rattus norvegicus; assay: Potency of compound was determined in rat duodenum relative to substance E; assay type: functional
Cavia porcellus [3] = organism: Cavia porcellus; assay: Potency of compound was determined for contraction of guinea pig ileum relative to substance P(=1); assay type: functional
Rattus norvegicus [4] = organism: Rattus norvegicus; assay: Potency of compound was determined for contraction of rat bladder relative to substance P(=1); assay type: functional
Cricetinae gen. sp. = assay: Potency of compound was determined in hamster bladder relative to substance E; assay type: functional
Cavia porcellus [5] = organism: Cavia porcellus; assay: Potency of compound was determined for contraction of guinea pig vas deferens relative to substance P(=1); assay type: functional
[6] = target: Substance-P receptor (Rattus norvegicus) (UniProt P14600); assay: Potency for [3H]SP binding to Tachykinin receptor 1 in rat brain central nervous system (CNS); assay type: tissue-based
Chain of Substance-P receptor (Rattus norvegicus) (P14600 whole entry): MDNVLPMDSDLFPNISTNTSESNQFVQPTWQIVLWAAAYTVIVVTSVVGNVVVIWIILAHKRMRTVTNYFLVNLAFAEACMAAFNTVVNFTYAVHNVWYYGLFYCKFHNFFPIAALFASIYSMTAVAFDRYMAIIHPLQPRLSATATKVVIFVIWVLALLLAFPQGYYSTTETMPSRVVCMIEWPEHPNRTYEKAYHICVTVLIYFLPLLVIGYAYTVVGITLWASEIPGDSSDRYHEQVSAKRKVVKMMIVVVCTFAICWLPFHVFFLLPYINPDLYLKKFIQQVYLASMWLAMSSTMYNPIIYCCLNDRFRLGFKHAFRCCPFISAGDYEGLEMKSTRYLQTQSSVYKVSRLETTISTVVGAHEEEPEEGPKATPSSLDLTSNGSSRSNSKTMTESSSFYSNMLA

**Q.** How did the Potency (Rattus norvegicus [1]) turn out when `CC[C@H](C)[C@H](NC(=O)[C@H](Cc1ccccc1)NC(=O)[C@H](C)NC(=O)[C@H](CC(=O)O)NC(=O)[C@H](CCCCN)NC(=O)[C@H](CO)NC(=O)[C@@H]1CCCN1C(=O)[C@@H]1CCC(=O)N1)C(=O)NCC(=O)N[C@@H](CC(C)C)C(=O)N[C@@H](CCSC)C(N)=O` [ELEDOISIN] ([pGlu]PSKDAFIGLM-NH2) was run?
**A.** Its Potency is 86.

**Q.** What about the Potency (Rattus norvegicus [2]) of the same compound?
**A.** Its Potency is 13.9.

**Q.** What about the Potency (Cavia porcellus [3]) of the same compound?
**A.** Its Potency is 0.9.

**Q.** And the Potency (Rattus norvegicus [4])?
**A.** The Potency was 0.96.

**Q.** And the Potency (Cricetinae gen. sp.)?
**A.** Its Potency is 105.

**Q.** And the Potency (Cavia porcellus [5])?
**A.** Its Potency is 0.6.

**Q.** What about the Potency [6] of the same compound?
**A.** The Potency was 0.3.
